“Also recorded” adds a separate entry of the source. Where two headings read alike, the source gives them in different places.
How the values were obtained:
[1] = system: cisplatin-treated Wistar rats; assay: Cisplatin study (body weight, food intake, von Frey testing); type: in vivo; details: for Body Weight / Allodynia: Cisplatin 0.5 mg/kg (i.p.) for three days
Method: Compound A was made as a suspension in 0.5% carboxymethylcellulose solution in dosing volumes of 1 and 10 mL/kg for rats and mice respectively and dosed orally at 3, 10 or 30 mg/kg. […] Bortezomib was prepared in 10% Tween 80, 10% EtOH 100% and 80% saline solution and injected i.v. (1 mL/kg) at 0.2 mg/kg.
Fifty male Wistar rats weighing 250-300 g at start of experiment were randomly divided into 5 groups of 10 rats each. Group 1 received daily Compound A vehicle (p.o.) for 6 days and cisplatin vehicle (i.p.) for 3 days. Group 2 received Compound A vehicle (p.o) and 0.5 mg/kg cisplatin (i.p.) for 3 days followed by Compound A vehicle for 3 additional days. Group 3 received daily 3 mg/kg Compound A (p.o) and 0.5 mg/kg cisplatin (i.p.) for 3 days followed by 3 mg/kg Compound A for an additional 3 days. Group 4 received 10 mg/kg Compound A (p.o) and 0.5 mg/kg cisplatin (i.p.) for 3 days followed by 10 mg/kg Compound A for an additional 3 days. Group 5 received daily 30 mg/kg Compound A (p.o.) and 0.5 mg/kg cisplatin (i.p.) for 3 days followed by 30 mg/kg Compound A for an additional 3 days. In each case, cisplatin or cisplatin vehicle was dosed 30 min after Compound A or Compound A vehicle, which was dosed 1 hour prior to von Frey filament testing. Individual body weights and 24 h food intake were measured daily from just prior to initiation of dosing.
In the cisplatin study, rats were individually housed and acclimated to handling and to the Von Frey testing apparatus for several days prior to start of the experiment. Baseline measurements were obtained prior to dosing. Behavioral testing was conducted following procedures previously described (28). Each filament was tested 5 times and the test continued until 3 withdrawal responses to a particular filament were recorded.

proteasome activity = assay: Proteasome inhibition study in bortezomib-treated rats; type: in vivo, Wistar rats; details: co-administration at different doses, preventive or therapeutic settings
Method: At baseline and after 8 weeks of treatment, caudal and digital nerve conduction and potential amplitude studies, behavioral tests (Dynamic) and blood collection to study proteasome inhibition were performed. After 8 weeks of treatment, tissue samples (sciatic and caudal nerves, DRG and foot pads) were collected and analyzed to study morphological parameters and intraepidermal nerve fibre density (IENFD).
At baseline and after 8 weeks of treatment, caudal and digital nerve conduction and potential amplitude studies and blood collection to study proteasome inhibition were performed. […] After 8 weeks of treatment, sciatic nerves, caudal nerves, DRG and foot pads were collected from all animals and analyzed to study morphological parameters and IENFDs.

[2] = dog, in vivo
[3] = system: oxaliplatin-treated Balb/C mice; details: for Body Weight / IENFD / NCS: Oxaliplatin 6 mg/kg (i.p.) twice weekly for 4 weeks
healthy male subjects = type: in vivo, human; details: for maximal decrease of mean heart rate (Holter-ECG): 1 to 3 hours after administration
Method: The study was performed as a single-center, randomized, double-blind, placebo-controlled, Phase 1 study with healthy male subjects receiving single ascending oral doses of Compound A. A dose-escalation design was considered to be appropriate to investigate the safety and tolerability of this new compound in the first single dose study in humans. Within each cohort six subjects were to receive a single oral dose of Compound A and two subjects were to receive placebo on Day 1.
Each subject received a single oral dose of either Compound A or placebo in a randomized fashion. Study drug administrations were performed in the morning of Day 1. The proper administration of the study medication was supervised by the Investigator or delegate. This included checking the oral and buccal cavity. The study medication or placebo was supplied as powder-containing gelatin capsules; they were administered orally together with 240 mL water. Subjects were dosed in a fasted state (no food was taken for at least 8 hours prior to dosing). Access to food was restricted until 4 hours after dosing.
12-lead ECGs were recorded on Day −1 and from pre-dose on Day 1 to 72 hours after drug administration. In addition, a Holter-ECG was recorded from about at least 12 hours prior to the planned dosing until 24 hours post-dose. Triplicate extracts (1 min interval) were taken at the same time-points when paper ECGs were taken. Vital signs (blood pressure, pulse rate, body temperature [auricular measurement]) were measured on Day −1 and then from pre-dose on Day 1 to 72 hours post-dose. 12-lead ECGs were recorded as scheduled in the study flow chart using the ECG system (Cardiosoft, Marquette Hellige). Triplicate ECGs were recorded at 36, 48 and 72 hours post-dose. The ECGs were recorded in supine position after at least 5 minutes rest or after at least 15 minutes rest at time points when ECG extracts from the Holter-ECG were done (to allow for a sufficient time period). ECGs were plotted with a paper speed of 50 mm/s and 10 mm/mV amplitude, with 10 seconds recording duration for all leads and at least 3 complexes, but preferably 5 complexes in each lead. The following ECG parameters were evaluated: heart rate, PR interval, QRS interval, QT interval, QTcB (using Bazett's correction formula) and QTcF (using Fridericia's correction formula).

[4] = rat, in vivo

Substance: 3-(1-(2,3-dichloro-4-methoxyphenyl) ethyl)-1-methyl-1-(1,3,3-trimethylpiperidin-4-yl)urea monohydrochloride salt [Compound A]
- Body Weight ([1]; Compound A dose 3): +
- Allodynia ([1]; Compound A dose 10): +
- Body Weight ([1]; Compound A dose 10): +
- Allodynia ([1]; Compound A dose 30): +
- Body Weight ([1]; Compound A dose 30): +
- cisplatin-induced mechanical hyperalgesia ([1]; Compound A 3 mg/kg p.o., monohydrochloride salt, 3 mg/kg): no significant effect and not
- paw withdrawal thresholds compared to vehicle-treated rats ([1]; Compound A 30 mg/kg, Days 3 thru 5): significantly increased
- overall food intake compared to cisplatin alone ([1]; Compound A 3, 10 and 30 mg/kg p.o.): increased
- body weight compared to cisplatin alone ([1]; Compound A 3, 10 and 30 mg/kg p.o., monohydrochloride salt): increased; also recorded: improved
- food intake compared to cisplatin alone ([1]; Compound A 10 and 30 mg/kg p.o. (FIG. 1B)): improved
- cisplatin-induced mechanical hyperalgesia ([1]; Compound A 10 and 30 mg/kg p.o., monohydrochloride salt): significantly reduced; also recorded: significantly improved
- bortezomib-induced proteasome inhibition (proteasome activity): did not impair
- F [2]: 31.2%
- T1/2 z ([2]; iv, 1 mg/kg): 1.6 h
- Vz/F ([2]; iv, 1 mg/kg): 3.7 L/kg
- T1/2 z ([2]; po, 2 mg/kg): 1.6 h
- Vz/F ([2]; po, 2 mg/kg): 13.0 L/kg
- improvement of digital potential amplitude vs. oxaliplatin-treated mice ([3]; Compound A 30 mg/kg): 33+/−9%
- digital potential amplitude ([3]; Compound A 30 mg/kg (FIG. 2B)): able to normalize
- oxaliplatin-induced decrease in digital and caudal NCV ([3]; Compound A 10 and 30 mg/kg): significantly prevented
- IENFD in footpads vs. vehicle treated mouse values ([3]; Compound A 10 and 30 mg/kg, monohydrochloride salt): completely normalized; also recorded: completely normalised
- weight loss compared to oxaliplatin treated mice ([3]; Compound A 10 or 30 mg/kg): less weight loss
- Body Weight ([3]; Compound A dose 10): +
- IENFD ([3]; Compound A dose 10): +
- NCS ([3]; Compound A dose 10): +
- Body Weight ([3]; Compound A dose 30): +
- IENFD ([3]; Compound A dose 30): +
- NCS ([3]; Compound A dose 30): +
- degenerative changes in DRG and sciatic nerve ([3]; mouse, in vivo): did not cause any degenerative changes
- time after dosing at which pre-dose heart rate levels were reached again (healthy male subjects; 0.1 to 10 mg single oral dose): 6 h
- pulse rate (healthy male subjects; groups treated with Compound A): decrease
- maximal decrease of mean heart rate (Holter-ECG) (healthy male subjects; single oral dose 0.1 mg): 5.1 bpm
- maximal decrease of mean heart rate (Holter-ECG) (healthy male subjects; single oral dose 0.3 mg): 6.8 bpm
- maximal decrease of mean heart rate (Holter-ECG) (healthy male subjects; single oral dose 1.0 mg): 15.9 bpm
- maximal decrease of mean heart rate (Holter-ECG) (healthy male subjects; single oral dose 10 mg): 18.3 bpm
- AUClast ([4]; iv, 3 mg/kg): 937 ± 145 ng·h/mL
- C0083/Cmax ([4]; iv, 3 mg/kg): 682 ± 58.5 ng/mL
- CL (clearance) ([4]; iv, 3 mg/kg): 52.0 ± 9.22 mL/min/kg
- Vss (volume distribution at steady state) ([4]; iv, 3 mg/kg): 6600 ± 491 mL/kg
- t1/2, z ([4]; iv, 3 mg/kg): 1.92 ± 0.121 h
- AUClast ([4]; iv, 10 mg/kg): 3540 ± 765 ng·h/mL
- AUClast ([4]; po, 3 mg/kg): 780 ± 155 ng·h/mL
- C0083/Cmax ([4]; po, 3 mg/kg): 181 ± 43.7 ng/mL
- F (bioavailability) ([4]; po, 3 mg/kg): 83 ± 21%
- t1/2, z ([4]; po, 3 mg/kg): 2.56 ± 0.177 h
- tmax ([4]; po, 3 mg/kg): 1.67 ± 0.577 h
- AUClast ([4]; po, 10 mg/kg): 3400 ± 1010 ng·h/mL
- tmax ([4]; po, 10 mg/kg): 1.67 ± 2.02 h
- AUClast ([4]; po, 30 mg/kg): 12300 ± 1400 ng·h/mL
- C0083/Cmax ([4]; po, 30 mg/kg): 1430 ± 208 ng/mL
- F (bioavailability) ([4]; po, 30 mg/kg): 116 ± 28%
- bioavailability ([4]; po, 30 mg/kg): exceeded 80%
- t1/2, z ([4]; po, 30 mg/kg): 3.26 ± 0.170 h
- tmax ([4]; po, 30 mg/kg): 1.67 ± 0.577 h
